Source: ChEMBL document CHEMBL1140860, “Synthesis and evaluation of dihydroartemisinin and dihydroartemisitene acetal dimers showing anticancer and antiprotozoal activity” (Bioorg Med Chem, 2009)

How the values were obtained:
HCT-15 = assay: Growth inhibition of human HCT15 cells after 48 hrs by sulforhodamine B assay; format: functional; conditions: HCT-15, 48 h
KM12 = assay: Growth inhibition of human KM12 cells after 48 hrs by sulforhodamine B assay; format: functional; conditions: KM12, 48 h
Malme-3M = assay: Growth inhibition of human MALME-3M cells after 48 hrs by sulforhodamine B assay; format: functional
OVCAR-8 = assay: Growth inhibition of human OVCAR8 cells after 48 hrs by sulforhodamine B assay; format: functional; conditions: OVCAR-8, 48 h
HOP-92 = assay: Growth inhibition of human HOP92 cells after 48 hrs by sulforhodamine B assay; format: functional; conditions: HOP-92, 48 h
SN12C = assay: Growth inhibition of human SN12C cells after 48 hrs by sulforhodamine B assay; format: functional
[1] = Selectivity index, ratio of TC50 for african green monkey (Cercopithecus aethiops) Vero cells to IC50 for chloroquine-resistant Plasmodium falciparum W2; format: toxicity, cell-based
SK-OV-3 = assay: Growth inhibition of human SKOV3 cells after 48 hrs by sulforhodamine B assay; format: functional; conditions: SK-OV-3, 48 h
HCC 2998 = assay: Growth inhibition of human HCC2998 cells after 48 hrs by sulforhodamine B assay; format: functional; conditions: HCC 2998, 48 h
HL-60 = assay: Growth inhibition of human HL-60(TB) cells after 48 hrs by sulforhodamine B assay; format: functional; conditions: HL-60, 48 h
NCI-H226 = assay: Growth inhibition of human NCI-H226 cells after 48 hrs by sulforhodamine B assay; format: functional; conditions: NCI-H226, 48 h
MDA-MB-435 = assay: Growth inhibition of human MDA-MB-435 cells after 48 hrs by sulforhodamine B assay; format: functional; conditions: MDA-MB-435, 48 h
SW-620 = assay: Growth inhibition of human SW620 cells after 48 hrs by sulforhodamine B assay; format: functional; conditions: SW-620, 48 h
SNB-75 = assay: Growth inhibition of human SNB75 cells after 48 hrs by sulforhodamine B assay; format: functional; conditions: SNB-75, 48 h
BT-549 = assay: Growth inhibition of human BT549 cells after 48 hrs by sulforhodamine B assay; format: functional; conditions: BT-549, 48 h
CCRF-CEM = assay: Growth inhibition of human CCRF-CEM cells after 48 hrs by sulforhodamine B assay; format: functional
[2] = Growth inhibition of human […] cells after 48 hrs by sulforhodamine B assay; format: functional
SK-MEL-28 = assay: Growth inhibition of human SK-MEL-28 cells after 48 hrs by sulforhodamine B assay; format: functional; conditions: SK-MEL-28, 48 h
SR = assay: Growth inhibition of human SR cells after 48 hrs by sulforhodamine B assay; format: functional
MCF7 = assay: Growth inhibition of human MCF7 cells after 48 hrs by sulforhodamine B assay; format: functional; conditions: MCF7, 48 h
PC-3 = assay: Growth inhibition of human PC3 cells after 48 hrs by sulforhodamine B assay; format: functional; conditions: PC-3, 48 h
786-0 = assay: Growth inhibition of human 786-0 cells after 48 hrs by sulforhodamine B assay; format: functional; conditions: 786-0, 48 h
EKVX = assay: Growth inhibition of human EKVX cells after 48 hrs by sulforhodamine B assay; format: functional
A498 = assay: Growth inhibition of human A498 cells after 48 hrs by sulforhodamine B assay; format: functional; conditions: A498, 48 h
M14 = assay: Growth inhibition of human M14 cells after 48 hrs by sulforhodamine B assay; format: functional; conditions: M14, 48 h
CAKI-1 = assay: Growth inhibition of human Caki1 cells after 48 hrs by sulforhodamine B assay; format: functional; conditions: CAKI-1, 48 h
RXF 393 = assay: Growth inhibition of human RXF393 cells after 48 hrs by sulforhodamine B assay; format: functional; conditions: RXF 393, 48 h
SNB-19 = assay: Growth inhibition of human SNB19 cells after 48 hrs by sulforhodamine B assay; format: functional; conditions: SNB-19, 48 h
MDA-MB-231 = assay: Growth inhibition of human MDA-MB-231 cells after 48 hrs by sulforhodamine B assay; format: functional; conditions: MDA-MB-231, 48 h
NCI-H460 = assay: Growth inhibition of human NCI-H460 cells after 48 hrs by sulforhodamine B assay; format: functional; conditions: NCI-H460, 48 h
HT-29 = assay: Growth inhibition of human HT-29 cells after 48 hrs by sulforhodamine B assay; format: functional; conditions: HT-29, 48 h
UO-31 = assay: Growth inhibition of human UO31 cells after 48 hrs by sulforhodamine B assay; format: functional; conditions: UO-31, 48 h
Plasmodium falciparum [3] = assay: Antimalarial activity after 72 hrs against chloroquine-resistant Plasmodium falciparum W2 infected erythrocytes by LDH assay; format: functional, organism-based; conditions: W2, 72 h
Plasmodium falciparum [4] = assay: Antimalarial activity after 72 hrs against chloroquine-sensitive Plasmodium falciparum D6 infected in erythrocytes by LDH assay; format: functional, organism-based; conditions: D6, 72 h
SF-268 = assay: Growth inhibition of human SF268 cells after 48 hrs by sulforhodamine B assay; format: functional; conditions: SF-268, 48 h
OVCAR-4 = assay: Growth inhibition of human OVCAR4 cells after 48 hrs by sulforhodamine B assay; format: functional; conditions: OVCAR-4, 48 h
COLO 205 = assay: Growth inhibition of human COLO205 cells after 48 hrs by sulforhodamine B assay; format: functional; conditions: COLO 205, 48 h
NCI-H322M = assay: Growth inhibition of human NCI-H322M cells after 48 hrs by sulforhodamine B assay; format: functional
NCI-H23 = assay: Growth inhibition of human NCI-H23 cells after 48 hrs by sulforhodamine B assay; format: functional; conditions: NCI-H23, 48 h
MOLT-4 = assay: Growth inhibition of human MOLT4 cells after 48 hrs by sulforhodamine B assay; format: functional; conditions: MOLT-4, 48 h
U-251 = assay: Growth inhibition of human U251 cells after 48 hrs by sulforhodamine B assay; format: functional; conditions: U-251, 48 h
K562 = assay: Growth inhibition of human K562 cells after 48 hrs by sulforhodamine B assay; format: functional; conditions: K562, 48 h
MDA-N = assay: Growth inhibition of human MDA-N cells after 48 hrs by sulforhodamine B assay; format: functional
NCI-H522 = assay: Growth inhibition of human NCI-H522 cells after 48 hrs by sulforhodamine B assay; format: functional; conditions: NCI-H522, 48 h
A549 = assay: Growth inhibition of human A549 cells after 48 hrs by sulforhodamine B assay; format: functional; conditions: A549, 48 h
IGROV-1 = assay: Growth inhibition of human IGROV1 cells after 48 hrs by sulforhodamine B assay; format: functional; conditions: IGROV-1, 48 h
LOX IMVI = assay: Growth inhibition of human LOXIMVI cells after 48 hrs by sulforhodamine B assay; format: functional
ACHN = assay: Growth inhibition of human ACHN cells after 48 hrs by sulforhodamine B assay; format: functional
OVCAR-3 = assay: Growth inhibition of human OVCAR-3 cells after 48 hrs by sulforhodamine B assay; format: functional; conditions: OVCAR-3, 48 h
HOP-62 = assay: Growth inhibition of human HOP62 cells after 48 hrs by sulforhodamine B assay; format: functional; conditions: HOP-62, 48 h
T47D = assay: Growth inhibition of human T47D cells after 48 hrs by sulforhodamine B assay; format: functional
UACC-62 = assay: Growth inhibition of human UACC62 cells after 48 hrs by sulforhodamine B assay; format: functional; conditions: UACC-62, 48 h
TK-10 = assay: Growth inhibition of human TK10 cells after 48 hrs by sulforhodamine B assay; format: functional; conditions: TK-10, 48 h
HCT-116 = assay: Growth inhibition of human HCT116 cells after 48 hrs by sulforhodamine B assay; format: functional; conditions: HCT-116, 48 h
SK-MEL-5 = assay: Growth inhibition of human SK-MEL-5 cells after 48 hrs by sulforhodamine B assay; format: functional; conditions: SK-MEL-5, 48 h
SK-MEL-2 = assay: Growth inhibition of human SK-MEL-2 cells after 48 hrs by sulforhodamine B assay; format: functional; conditions: SK-MEL-2, 48 h
[5] = Selectivity index, ratio of TC50 for african green monkey (Cercopithecus aethiops) Vero cells to IC50 for chloroquine-sensitive Plasmodium falciparum D6; format: toxicity, cell-based
NCI/ADR-RES = assay: Growth inhibition of human NCI/ADR-RES cells after 48 hrs by sulforhodamine B assay; format: functional
UACC-257 = assay: Growth inhibition of human UACC257 cells after 48 hrs by sulforhodamine B assay; format: functional; conditions: UACC-257, 48 h
OVCAR-5 = assay: Growth inhibition of human OVCAR5 cells after 48 hrs by sulforhodamine B assay; format: functional; conditions: OVCAR-5, 48 h
[6] = Cytotoxicity against african green monkey Vero cells after 48 hrs by neutral red assay; format: cell-based; conditions: chlorocebus sabaeus, read-out: TC50
[7] = Growth inhibition of human Hs 578T cells after 48 hrs by sulforhodamine B assay; format: functional

C[C@H]1[C@H](OCCCCO[C@H]2O[C@@H]3O[C@@]4(C)CC[C@H]5[C@H](C)CC[C@@H]([C@H]2C)[C@@]35OO4)O[C@@H]2O[C@@]3(C)CC[C@H]4[C@H](C)CC[C@@H]1[C@@]24OO3
GI50 (HCT-15): 7 nM | GI50 (KM12): 12 nM | GI50 (Malme-3M): 353 nM | GI50 (OVCAR-8): 47 nM | GI50 (HOP-92): 6.4 µM | GI50 (SN12C): 210 nM | selectivity ratio [1]: > 54 | GI50 (SK-OV-3): 7.21 µM | GI50 (HCC 2998): 365 nM | GI50 (HL-60): 12 nM | GI50 (NCI-H226): 34 nM | GI50 (MDA-MB-435): 18 nM | GI50 (SW-620): 16 nM | GI50 (SNB-75): 8.05 µM | GI50 (BT-549): 220 nM | GI50 (CCRF-CEM): 15 nM | GI50 [2]: < 5 nM | GI50 (SK-MEL-28): 8.82 µM | GI50 (SR): < 5 nM | GI50 (MCF7): 43 nM | GI50 (PC-3): 11 nM | GI50 (786-0): 107 nM | GI50 (EKVX): 44 nM | GI50 (A498): 5.77 µM | GI50 (M14): 148 nM | GI50 (CAKI-1): 6.56 µM | GI50 (RXF 393): 9.8 µM | GI50 (SNB-19): 869 nM | GI50 (MDA-MB-231): 5.07 µM | GI50 (NCI-H460): 4.23 µM | GI50 (HT-29): 15 nM | GI50 (UO-31): 22 nM | IC50 (Plasmodium falciparum [3]): 14.1 µM | IC50 (Plasmodium falciparum [4]): 17.7 µM | GI50 (SF-268): 5.62 µM | GI50 (OVCAR-4): 148 nM | GI50 (COLO 205): 12 nM | GI50 (NCI-H322M): 16 µM | GI50 (NCI-H23): 20 nM | GI50 (MOLT-4): 8 nM | GI50 (U-251): 25 nM | GI50 (K562): 12 nM | GI50 (MDA-N): 58 nM | GI50 (NCI-H522): 16 nM | GI50 (A549): 35 nM | GI50 (IGROV-1): 381 nM | GI50 (LOX IMVI): 8 nM | GI50 (ACHN): 31 nM | GI50 (OVCAR-3): 203 nM | GI50 (HOP-62): 42 µM | GI50 (T47D): < 5 nM | GI50 (UACC-62): 215 nM | GI50 (TK-10): 23 nM | GI50 (HCT-116): 10 nM | GI50 (SK-MEL-5): 115 nM | GI50 (SK-MEL-2): 318 nM | selectivity ratio [5]: 43 | GI50 (NCI/ADR-RES): 214 nM | GI50 (UACC-257): 69 nM | GI50 (OVCAR-5): 65 nM | CC50 at 48 h [6]: > 764 µM | GI50 [7]: 133 nM
